According to patent publication US20240376123A1, “KRAS G12D INHIBITORS AND USES THEREOF” (SUZHOU ZANRONG PHARMA LIMITED, priority 2021, published 2024):

Tests used:
[1] = test system: p-ERK in PNAC-1/HPAC cell; test: Phospho-ERK 1/2 assay (Table 1); format: cell-based; settings: Homo sapiens; PNAC-1/HPAC cell, 3 hours compound incubation; read-out: p-ERK IC50
Method in brief: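 Pancreatic cancer cells (PNAC-1/HPAC) treated with compound 3 hours at 37° C, 0.5% DMSO final, then fixed and methanol-permeabilized. In-cell western: rabbit anti-pERK with mouse anti-GAPDH overnight at 4° C, IR-dye secondaries, imaged at 700 and 800 nm.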

Panc-1 p-ERK = test: Phospho-ERK 1/2 assay, Panc-1 (Table 2); format: cell-based; settings: Homo sapiens; Panc-1 cells
Procedure: (§1) Allow PNAC-1/HPAC cell growth in a T75 flask in DMEM and 10% 1 fetal calf serum (FCS; Gibco), using standard tissue culture procedures until ˜80% confluency is achieved. Day 1, seed 6000 cells/well in 384 well plate and incubate at 37° C., 5% CO2. Add diluted compound by Echo 550, final DMSO is 0.5%, incubate cells at 37° C., 5% CO2 for 3 hours. Then, remove medium and fix cells with 3.7% formaldehyde in PBS (PFA) by Apricot. Wash with PBS once. Permeabilize cells with cold 100% methanol and repeat wash once with PBS once. Add Li-Cor blocking buffer to each well and incubate 1.5 hours at RT. Remove blocking buffer and add primary antibody mixture (rabbit anti pERK, mouse anti GAPDH). Incubate at 4° C. overnight. Day 2, wash with PBST (Tween-20 in PBS) with total 3 times and then add secondary antibody mixture (goat anti rabbit 800CW (1:800 dilution in the combined solution) and goat anti mouse 680RD (1:800 dilution in the combined solution)), incubate for 60 minutes at RT away from light. Repeat washing with PBST 3 times. After final wash, centrifuge plate up-side-down at 1000 rpm to remove wash solution completely from wells. Before plate scanning, clean the bottom plate surface and the Odyssey* Imager scanning bed (if applicable) with moist, lint-free tissue to avoid any obstructions during scanning. Scan plate with detection in both 700 and 800 nm channels.
(§2) Table 2 describes the p-ERK IC50 values and selectivity over WT-KRAS cell line MKN-1 of the exemplary compounds of the present disclosure and reference compound MRTX-1133.

WT-KRAS cell line MKN-1 = test: Phospho-ERK 1/2 assay, WT-KRAS cell line MKN-1 (Table 2); format: cell-based; settings: for IC50: Homo sapiens, WT-KRAS cell line MKN-1, p-ERK; for Selectivity Fold: selectivity over WT-KRAS cell line MKN-1 vs Panc-1 p-ERK
Procedure: as §1, §2

[2] = test system: HPAC (ATCC CRL-2119) cells; test: KRAS G12D 3D CellTiter-Glo proliferation assay, HPAC; format: cell-based; settings: Homo sapiens, 168 h, 3D proliferation, 7 days, CellTiter-Glo 3D
Procedure: (§3) HPAC (ATCC CRL-2119) and AsPC-1 (ATCC CRL-1682) cells were purchased from ATCC, and each cell was cultured in medium supplemented with 10% fetal bovine serum (FBS), according to the protocol recommended by the manufacture. Serially diluted compound was added to 384-well Ultra-Low Attachment Surface round bottom plate (Corning). 400 cells/well were seeded in plate and incubated at 37° C., 5% CO2 for 7 days. Cell viability was measured using a CellTiter-Glo® 3D Cell Viability Assay kit (Promega) according to the manufacturer's protocol.
(§4) The 2D and 3D proliferation data of the exemplary compounds of the present disclosure in different cell lines are shown in Table 3.

[3] = test system: AsPC-1 (ATCC CRL-1682) cells; test: KRAS G12D 3D CellTiter-Glo proliferation assay, AsPC-1; format: cell-based; settings: Homo sapiens, ASPC1, 168 h; 3D proliferation, 7 days, CellTiter-Glo 3D
Procedure: as §3, §4

[4] = test system: AsPC-1 (ATCC CRL-1682) cells; test: KRAS G12D 2D CellTiter-Glo proliferation assay, AsPC-1; format: cell-based; settings: Homo sapiens, ASPC1, 2D proliferation, 72 hours
Procedure: (§5) AsPC-1 (ATCC CRL-1682) and LS513 (ATCC CRL-2134) cells were purchased from ATCC, GP2D (Cobioer CBP60010) cells was purchased from Cobioer biosciences CO., LTD, and each cell was cultured in medium supplemented with 10% fetal bovine serum (FBS), according to the protocol recommended by the manufacture. Cells were seeded 800 cells/well in 384-well plates (Corning) and incubated at 37° C., 5% CO2 for 18 hours. Serially diluted compound was added to the cells, and plates were incubated at 37° C., 5% CO2 for 72 hours. Cell viability was measured using a CellTiter-Glo® Luminescent Cell Viability Assay kit (Promega) according to the manufacturer's protocol.
as §4

[5] = test system: GP2D (Cobioer CBP60010) cells; test: KRAS G12D 2D CellTiter-Glo proliferation assay, GP2D; format: cell-based; settings: 2D proliferation, 72 hours
Procedure: as §5, §4

[6] = test system: LS513 (ATCC CRL-2134) cells; test: KRAS G12D 2D CellTiter-Glo proliferation assay, LS513; format: cell-based; settings: Homo sapiens, LS-513, 2D proliferation, 72 hours
Procedure: as §5, §4

[7] = In vivo oral bioavailability assay; settings: Balb/c mice female, IV bolus 1 mg/kg and oral gavage 30 mg/kg, single dose
Procedure: Single dose following IV bolus (1 mg/kg, 0.2 mg/mL in 1% DMSO, 99% SBE-β-CD (10% w/v) in water) and oral gavage (30 mg/kg, 3 mg/mL in 1% MC in DI water) administration of test compound in Balb/c Mice female. The blood samples were collected at 2 min, 5 min, 10 min, 30 min, 1 hr, 2 hr, 4 hr, 8 hr and 24 hr (additional 32 hr and 48 hr for MRTX1133) after IV bolus, at 15 min, 30 min, 1 hr, 1.5 hr, 2 hr, 3 hr, 4 hr, 8 hr and 24 hr (additional 32 hr and 48 hr for MRTX1133) after PO administration. The plasma concentrations of compounds were determined with UPLC-MS/MS.

SMILES | IC50 [1] [nM] | IC50 (Panc-1 p-ERK) [nM] | IC50 (WT-KRAS cell line MKN-1) [nM] | Selectivity Fold (WT-KRAS cell line MKN-1) [Fold] | IC50 [2] [nM] | IC50 [3] [nM] | IC50 [4] [nM] | IC50 [5] [nM] | IC50 [6] [nM] | Bioavailability (%) [7] [%] | Fa*Fg (%) [7] [%]
C#Cc1c(F)ccc2cccc(-c3nc4c5c(nc(OC[C@@]67CCCN6C[C@H](F)C7)nc5c3F)N3CC5CCC(N5)[C@H]3CO4)c12 (single isomer, unassigned) [Compound 10] | 2 | 2 | 343 | 171 | 28 | 48 | 490 | 15 | 238 | 37.7 | 54.0
C#Cc1cccc2cccc(-c3nc4c5c(nc(OC[C@@]67CCCN6C[C@H](F)C7)nc5c3F)N3C[C@H]5CC[C@H](N5)[C@H]3CO4)c12 [Compound 25, (5aS,6S,9R)-2-(8-ethynylnaphthalen-1-yl)-1-fluoro-12-(((2R,7aS)-2-fluorotetrahydro-1H-pyrrolizin-7a(5H)-yl)methoxy)-5a,6,7,8,9,10-hexahydro-5H-4-oxa-3,10a,11,13,14-pentaaza-6,9-methanonaphtho[1,8-ab]heptalene] | 10 | 10 | 754 | 75 | 76 | 54 | 516 | 23 | 80 | 39.2 | 56.6
CCc1c(F)ccc2cc(O)cc(-c3nc4c5c(nc(OC[C@@]67CCCN6C[C@H](F)C7)nc5c3F)N3C[C@H]5CC[C@H](N5)[C@H]3CO4)c12 [Compound 28, 5-ethyl-6-fluoro-4-((5aS,6S,9R)-1-fluoro-12-(((2R,7aS)-2-fluorotetrahydro-1H-pyrrolizin-7a(5H)-yl)methoxy)-5a,6,7,8,9,10-hexahydro-5H-4-oxa-3,10a,11,13,14-pentaaza-6,9-methanonaphtho[1,8-ab]heptalen-2-yl)naphthalen-2-ol] | 0.76 | 0.76 | 76 | 100 | 3.3 | 4.7 | 35 | 1.2 | 25.2 | – | –
